Consider one molecule from patent US11642349B2, “Method for treating cancer” (Epizyme, Inc., priority 2015, dated 2023).

One series is described as follows: oral bioavailability. The following applies: in vivo.
Series [1] deals with INI1-deleted malignant rhabdoid tumor (MRT) models. As to the kind of experiment: INI1-deleted malignant rhabdoid tumor (MRT) models in vitro. The class given is cell-based.
A further series relates to MRT xenograft. Kind of series: MRT xenograft-bearing mice. The class given is in vivo.

Take `CCN(c1cc(-c2ccc(CN3CCOCC3)cc2)cc(C(=O)NCc2c(C)cc(C)[nH]c2=O)c1C)C1CCOCC1` [EPZ-6438]: the oral bioavailability result in “oral bioavailability” is “orally bioavailable”. Moreover, the apoptosis and differentiation entry in series [1] is “induce apoptosis and differentiation”; with MRT xenograft, “induce apoptosis and differentiation”.
